Assay results taken from patent publication US20160022636A1, “PHYSIOLOGICAL LIGANDS FOR GPR139” (JANSSEN PHARMACEUTICA NV, priority 2013, published 2016).
Like-named read-outs stand apart in the source and are kept apart here.

Molecular target: T1, GPR139 (Homo sapiens, UniProt Q6DWJ6)
T1 sequence (Q6DWJ6 1-353): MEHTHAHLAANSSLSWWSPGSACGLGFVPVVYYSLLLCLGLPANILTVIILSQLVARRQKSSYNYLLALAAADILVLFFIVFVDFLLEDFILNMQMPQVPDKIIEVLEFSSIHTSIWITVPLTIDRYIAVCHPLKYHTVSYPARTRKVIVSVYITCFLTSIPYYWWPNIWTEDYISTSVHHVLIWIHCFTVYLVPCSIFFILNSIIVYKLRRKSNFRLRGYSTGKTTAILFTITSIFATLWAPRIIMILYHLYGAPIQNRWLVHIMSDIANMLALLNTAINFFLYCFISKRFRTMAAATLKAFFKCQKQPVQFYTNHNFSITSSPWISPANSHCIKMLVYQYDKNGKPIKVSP
Experiment: calcium mobilization assay (FLIPR), GPR139 transiently expressed in HEK293 cells
Format: cell-based
Parameters: expressed in transfected cells; host or cells: HEK293
From the text: For these experiments human GPR139 was transiently expressed in HEK293 cells and calcium mobilization was stimulated using L-Trp, L-Phe or their derivatives.

[1] = HEK293, calcium mobilization at 300 μM as percentage of that observed for L-phenylalanine, read-out: % L-phenylalanine at 300 μM (average)
[2] = HEK293, read-out: % L-phenylalanine at 300 μM (average)
[3] = calcium mobilization at 300 μM as percentage of that observed for L-phenylalanine

Structure (SMILES)	activation at 300 µM [1]	further results
N[C@H](Cc1c(F)c(F)c(F)c(F)c1F)C(=O)O [2,3,4,5,6-Pentafluoro-D-phenylalanine]	145%	
N[C@H](Cc1ccc(Cl)cc1Cl)C(=O)O [2,4-Dichloro-D-phenylalanine]	135%	
N[C@@H](Cc1ccc(Cl)cc1Cl)C(=O)O [2,4-Dichloro-L-phenylalanine]	122%	
N[C@@H](Cc1ccc([N+](=O)[O-])cc1[N+](=O)[O-])C(=O)O [2,4-Dinitro-L-phenylalanine]		activation at 300 µM [2]: 95%
N[C@H](Cc1ccc(Br)s1)C(=O)O [2-(5-bromothienyl)-D-alanine]		% L-phenylalanine at 300 μM (average) [3]: 154%
N[C@@H](Cc1ccc(Br)s1)C(=O)O [2-(5-bromothienyl)-L-alanine]		% L-phenylalanine at 300 μM (average) [3]: 151%
N[C@H](C(=O)O)C(c1ccccc1)c1ccccc1 [3,3-Diphenyl-L-alanine]	117%	
N[C@H](Cc1ccc(Cl)c(Cl)c1)C(=O)O [3,4-Dichloro-D-phenylalanine]	149%	
N[C@@H](Cc1ccc(Cl)c(Cl)c1)C(=O)O [3,4-Dichloro-L-phenylalanine]	149%	
N[C@H](Cc1ccc(F)c(F)c1)C(=O)O [3,4-Difluoro-D-phenylalanine]	121%	
N[C@H](Cc1cc(F)cc(F)c1)C(=O)O [3,5-Difluoro-D-phenylalanine]	102%	
N[C@H](Cc1cccc(Br)c1)C(=O)O [3-Bromo-D-phenylalanine]	172%	
N[C@@H](Cc1cccc(Br)c1)C(=O)O [3-Bromo-L-phenylalanine]	167%	
N[C@H](Cc1cccc(Cl)c1)C(=O)O [3-Chloro-D-phenylalanine]	147%	
N[C@@H](Cc1cccc(Cl)c1)C(=O)O [3-Chloro-L-phenylalanine]	145%	
N#Cc1cccc(C[C@@H](N)C(=O)O)c1 [3-Cyano-D-phenylalanine]	93%	
N#Cc1cccc(C[C@H](N)C(=O)O)c1 [3-Cyano-L-phenylalanine]	115%	
N[C@H](Cc1cccc(F)c1)C(=O)O [3-Fluoro-D-phenylalanine]	94%	
N[C@@H](Cc1cccc(F)c1)C(=O)O [3-Fluoro-L-phenylalanine]	114%	
N[C@H](Cc1cccc([N+](=O)[O-])c1)C(=O)O [3-Nitro-D-Phenylalanine]	164%	
N[C@@H](Cc1cccc([N+](=O)[O-])c1)C(=O)O [3-Nitro-L-phenylalanine]	131%	
N[C@@H](Cc1cccc(C(F)(F)F)c1)C(=O)O [3-Trifluoromethyl-L-phenylalanine]	133%	
N[C@H](Cc1ccc(Br)cc1)C(=O)O [4-Bromo-D-phenylalanine]		activation at 300 µM [2]: 139%

Continued, in another order:

activation at 300 µM [1]	Structure (SMILES)	further results
101%	Cc1ccc(C[C@@H](N)C(=O)O)c(C)c1 [2,4-Dimethyl-D-phenylalanine]	
113%	Cc1ccc(C[C@H](N)C(=O)O)c(C)c1 [2,4-Dimethyl-L-phenylalanine]	
135%	N[C@H](Cc1ccccc1Br)C(=O)O [2-Bromo-D-phenylalanine]	
168%	N[C@@H](Cc1ccccc1Br)C(=O)O [2-Bromo-L-phenylalanine]	
119%	N[C@@H](Cc1ccccc1F)C(=O)O [2-Fluoro-L-phenylalanine]	
109%	Cc1ccccc1C[C@@H](N)C(=O)O [2-Methyl-D-phenylalanine]	
134%	Cc1ccccc1C[C@H](N)C(=O)O [2-Methyl-L-phenylalanine]	
150%	N[C@@H](Cc1ccccc1[N+](=O)[O-])C(=O)O [2-Nitro-L-phenylalanine]	
110%	N[C@@H](Cc1ccccc1C(F)(F)F)C(=O)O [2-Trifluoromethyl-L-phenylalanine]	
150%	Cc1cccc(C[C@@H](N)C(=O)O)c1 [3-Methyl-D-phenylalanine]	
147%	Cc1cccc(C[C@H](N)C(=O)O)c1 [3-Methyl-L-phenylalanine]	
